From patent publication US10709711B2 (G1 Therapeutics, Inc., priority 2013, dated 2020)

How the values were obtained:
[1] = test system: Daudi (human B-lymphoblastoid cell from Burkitt's Lymphoma patient); assay: Inhibition of cellular proliferation, Daudi cells (CellTiter-Glo); assay type: cell-based; conditions: EC50 measured as illustrated in Example 150 (CellTiter-Glo)
Experimental: (§1) The SupT1 cells were seeded in Costar (Tewksbury, Mass.) 3093 96 well tissue culture treated white walled/clear bottom plates. A nine point dose response dilution series from 10 uM to 1 nM was performed and cell viability was determined after four days as indicated using the CellTiter-Glo® assay (CTG; Promega, Madison, Wis., United States of America) following the manufacturer's recommendations. Plates were read on a BioTek (Winooski, Vt.) Syngergy2 multi-mode plate reader. The Relative Light Units (RLU) were plotted as a result of variable molar concentration and data was analyzed using Graphpad (LaJolla, Calif.) Prism 5 statistical software to determine the IC50 for each compound.
(§2) The compounds listed in Table 1 were tested for the inhibition of cellular proliferation using SupT1 (human T-cell lymphoblastic leukemia) and Daudi (human B-lymphoblastoid cell from Burkitt's Lymphoma patient).

[2] = test system: SupT1 cells (human T-cell lymphoblastic leukemia); assay: Inhibition of cellular proliferation, SupT1 cells (CellTiter-Glo); assay type: cell-based; conditions: SUP-T1, 96 h, cell viability after four days, nine point dilution series 10 uM to 1 nM
Experimental: as §1, §2

EC50 [1]	EC50 [2]	Compound
1270 nM	264 nM	CC(C)C[C@@H]1CNC(=O)c2cc3cnc(Nc4ccc(N5CCNCC5)cn4)nc3n21 [WWW]
1690 nM	77 nM	O=C1NCC2(CCCC2)n2c1cc1cnc(Nc3ccc(N4CCC(N5CCOCC5)CC4)cn3)nc12 [WW]
731 nM	57 nM	CC1CN(c2ccc(Nc3ncc4cc5n(c4n3)C3(CCCCC3)CNC5=O)nc2)CCN1CC(C)(C)O (centres unmarked) [W]
1170 nM	270 nM	CC(C)C[C@@H]1CNC(=O)c2cc3cnc(Nc4ccc(N5CCN(C)CC5)cn4)nc3n21 [XXX]
499 nM	94 nM	C[C@H](O)CN1CCN(c2ccc(Nc3ncc4cc5n(c4n3)C3(CCCC3)CNC5=O)nc2)C[C@H]1C [XX]
318 nM	36 nM	O=C1NCC2(CCCCC2)n2c1cc1cnc(Nc3ccc(N4CCC(N5CCC(C(F)(F)F)CC5)CC4)cn3)nc12 [X]
356 nM	97 nM	CN(C)C1CCN(c2ccc(Nc3ncc4cc5n(c4n3)C3(CCCC3)CNC5=O)nc2)CC1 [YY]
548 nM	85 nM	O=C1NCC2(CCCCC2)n2c1cc1cnc(Nc3ccc(C(=O)N4CCNCC4)cn3)nc12 [Y]
584 nM	272 nM	CN1CCN(c2ccc(Nc3ncc4cc5n(c4n3)C3(CCCC3)CNC5=O)nc2)CC1 [ZZ]
359 nM	87 nM	C[C@H](O)CN1[C@H](C)CN(c2ccc(Nc3ncc4cc5n(c4n3)C3(CCCCC3)CNC5=O)nc2)C[C@@H]1C [Z]
